Results from patent US20250388571A1, “AMP-ACTIVATED PROTEIN KINASE MODULATOR COMPOUNDS AND USES THEREOF” (Biolexis Therapeutics, Inc., priority 2024, published 2025).
“Also recorded” adds a separate entry of the source. Read-outs that look alike come from different tables or passages of the source.

Key:
[1] = test system: human hepatocytes-THLE-2 cells; experiment: Glucose uptake assay, THLE-2 cells; format: cell-based
Experimental: FIGS. 13-16 show results for glucose update assays in THLE-2 cells (ATCC, cat. No. CRL-2706) when treated with compound I-11 (FIG. 13), compound I-7 (FIG. 14), MK-8722 (FIG. 15), and PF-06409577 (FIG. 16). The THLE-2 cells were starved for 3 hours in high glucose DMEM without FBS, treated with the components noted above in DMEM without FBS/glucose for 1 hour, and glucose uptake was detected using a glucose uptake kit (Promega). The bars show (from left to right) concentrations of 100 μM, 33 μM, 11 μM, 3.7 μM, 1.23 μM, 0.41 μM, 0.14 μM, 0.045 μM, 0.015 μM, 0.005 μM, 0 μM, and insulin.
(§1) Human skeletal myoblasts were obtained (Thermofisher; BYU) and cultured in DMEM/F12 medium with 10% FBS. For differentiation, 2% horse serum low glucose DMEM medium was employed for 72 hours. Human cardiomyocytes cells (HCM cells; Promocell) were cultured in myocyte growth medium (Promocell). Human preadipocyte HWP-c cells (Promocell) were obtained from upper arm of diabetic II donor. Human preadipocyte HWP-c cells (Promocell) were obtained from abdomen of diabetic II donor. For differentiating human preadipocytes, cells were cultured in preadipocyte growth medium to total confluency stage. The growth medium was replaced with preadipocyte differentiation medium for 72 hours, then changed to PromoCell adipocyte nutrition medium to complete the differentiation process. THLE-2 cells were cultured in BEGM from Lonza/Clonetics Corporation, Walkersville, MD 21793 (BEGM Bullet Kit; CC3170). HepG2, L6 and C2Cl2 cells were cultured in EMEM medium.
(§2) After differentiation myoblasts, preadipocyte cells were starved by removing the medium and adding 100 μL DMEM without serum. The medium was then replaced with 100 μL DMEM±1 μM insulin at indicated concentration of representative compounds without serum or glucose. The cells were then incubated for 1 hour at 37° C. in 5% CO2. The cells were then removed from the medium and 50 μL of 0.1 mM 2DG in PBS was added. Cells were incubated for 30 minutes at 25° C. 25 μL of Stop Buffer was added and samples were mixed. 25 μL of Neutralization Buffer was then added and mixed. 100 μL of 2DG6P Detection Reagent was then added and mixed. Samples were then incubated for 1 hour at 25° C. Luminescence was then recorded with 0.3-1 second integration on a luminometer.

[2] = test system: human cardiomyocyte cells (HCM); experiment: Glucose uptake assay, human cardiomyocyte cells; format: cell-based; details: for AMPK activation activity (glucose uptake assay): 10 doses 100 μM to 0.005 μM
Experimental: FIGS. 17-19 show results for glucose update assays in human cardiomyocyte cells (“HCM”-healthy donor) (Promocell, cat. no. C-12810) when treated with compound I-11 (FIG. 17), compound I-7 (FIG. 18), and PF-06409577 (FIG. 19). After recovered HCM cells for 4 days, cells were starved for 3 hours in high glucose DMEM without FBS, treated with the components noted above in DMEM without FBS/glucose for 1 hour, and glucose uptake was detected using a glucose uptake kit (Promega). […] The bars show (from left to right) concentrations of 100 μM, 33 μM, 11 μM, 3.7 μM, 1.23 μM, 0.41 μM, 0.14 μM, 0.045 μM, 0.015 μM, 0.005 μM, 0 μM, and insulin.
FIGS. 20-22 show results for glucose update assays in human cardiomyocyte cells (“HCM”-diabetic donor) (Promocell, cat. no. C-12810) when treated with compound I-11 (FIG. 20), compound I-7 (FIG. 21), and PF-06409577 (FIG. 22). After recovered HCM cells for 4 days, cells were starved for 3 hours in high glucose DMEM without FBS, treated with the components noted above in DMEM without FBS/glucose for 1 hour, and glucose uptake was detected using a glucose uptake kit (Promega). […] The bars show (from left to right) concentrations of 100 μM, 33 μM, 11 μM, 3.7 μM, 1.23 μM, 0.41 μM, 0.14 μM, 0.045 μM, 0.015 μM, 0.005 μM, 0 μM, and insulin.
as §1, §2

[3] = test system: AMPK signal pathway in HSKM cells; experiment: Western blot assay, HSKM cells; format: cell-based, human
in vivo = format: in vivo; details: dog
Experimental: A total of 3 animals were segregated in to one group and each animal received oral dose followed by intravenous infusion (15 minutes) as a cross over design with 7 days of no dose interval between periods. […] Similarly, in period 2 after 7 days of no dose interval, animals were received intravenous infusion for 15 min at a dose of 1 mg/kg via saphenous vein at a dose volume of 1 mL/kg, each dog was observed after administration of the test item for presence or absence of clinical signs.
A total of 11 time points for oral and 12 blood samples for IV per each animal were collected, approximately 1 mL were collected from each dog in pre-labeled Eppendorf tubes containing 20 μL/mL of 200 mM K2 EDTA. Blood was withdrawn at scheduled time points via cephalic vein in pre-labelled Eppendorf tubes. The pre-dose blood sample was collected before to drug administration. Post dose samples were collected within stipulated time. The blood samples were kept on crushed ice to maintain the temperature until centrifugation. Plasma was separated and stored under −70° C. […] The PK parameters were evaluated using Phoenix WinNonlin® Ent-Version 8.3 by non-compartmental analysis.

[4] = Plasma, liver and adipose tissue concentration in db/db mice, day 36; format: in vivo, mice (Mus musculus; db/db C57BL/6); details: post 4 hours dosing on day 36; for concentration at 4 h: male, db/db C57BL/6, mouse, oral
Experimental: A mixture of DMSO (2%), Cremophor EL (2%), Tween 80 (1%), 0.5% methyl cellulose (35%), and water (60%) was used for the formulation. Doses were prepared at concentrations of 30 and 50 mg/kg. Administration was oral, daily for 36 days. Male mice (Mus musculus; db/db C57BL/6) aged 8-9 weeks and weighing less than or equal to 40 grams were used for the study. Groups were assigned 10 mice per group.
G2 and G3 plasma, liver and adipose tissue samples were collected post 4 hours dosing on day 36.

[5] = test system: AMPK signal pathway in human liver cells-HepG2; experiment: Western blot assay, HepG2 cells
Experimental: Samples for immunoblotting studies were prepared for electrophoresis by adding in a final concentration of 1× Laemmli loading buffer (supplemented with 5% 2-mercaptoethanol). Samples were then electrophorized by SDS-PAGE (4-15% or 4-20% Criterion TGX Precast gel, Bio-Rad) at a constant voltage within the range of 140V. Proteins were transferred to a nitrocellulose membrane (Bio-Rad) using the Trans-Blot Turbo transfer system (Bio-Rad). Membranes were blocked with 5% BSA in TBST for a minimum of 1 hour at room temperature before incubating with the following primary antibodies: • Phospho-AMPKα (Thr172) (40H9) Rabbit mAb (CST, cat no: 2535S), • AMPKα Antibody (CST, cat no: 2532S) • Phospho-Raptor (Ser792) Antibody (CST, cat no: 2083S) • Raptor (24C12) Rabbit mAb (CST, cat no: 2280S) • Phospho-Acetyl-CoA Carboxylase (Ser79) Antibody (CST, cat no: 3661S) • Acetyl-CoA Carboxylase Antibody (CST, cat no: 3662S) • AMPKα2 Antibody (CST, cat no: 2757S) • AMPKβ1 antibody (CST, cat no: 12063) • AMPKβ2 Antibody (CST, CST, cat no: 4148S) • AMPKγ3 Antibody (CST, cat no: 2550S).

HSKM cells = experiment: CyQUANT Cytotoxicity Assay (G6PD assay), HSKM; details: treated 2 hours
Experimental: The CyQUANT Cytotoxicity Assay (Thermofisher, cat no: V23111) was used to detect damaged and dying cells by means of their release of glucose 6-phosphate dehydrogenase into the surrounding medium. Cells were plated in a 96-well microplate (500-25,000 cells/well in a 50-μL volume). Three sets of triplicate wells were reserved for the following controls: a no-cell control (medium alone), untreated cells, and completely lysed cells. Cells were starved for 2 h and then add the indicated AMPK activators (50 μL) to the experimental wells and incubate for 2 hours, 50 μL of 2× reaction mixture was added to each well. 1 μL of 100× Cell-Lysis buffer was added to the completely lysed control wells only. Cells were incubated at 37° C. for 10-30 minutes. Fluorescence was measured (excitation 530-560 nm, emission 580-600 nm) at 5-minute intervals to determine the optimal time point for the experiment.
To text toxicity, after differentiation of human skeletal muscle cells, HSKM were starved with DMEM medium without FBS/glucose for 2 hours. […] The resultant reaction mixture was then assayed for glucose 6-phosphate dehydrogenase release. An untreated control sample and completely lysed cells were detected for comparison. The fluorescence was measured in a microplate reader (excitation/emission ˜530/590 nm).

HepG2 cells = experiment: CyQUANT Cytotoxicity Assay (G6PD assay), HepG2; details: treated 2 hours

Compound: O=c1[nH]c(-c2c[nH]c3cc(F)c(-c4ccc(C5(O)CCC5)cc4)c(F)c23)no1 [Compound I-11, 3-(4,6-difluoro-5-(4-(1-hydroxycyclobutyl)phenyl)-1H-indol-3-yl)-1,2,4-oxadiazol-5(4H)-one]
- glucose uptake [1]: induced glucose uptake; also recorded: dosage-dependent manner
- AMPK activation activity (glucose uptake assay) ([2]; diabetic donor): did not show AMPK activation activity
- glucose uptake ([2]; donor not stated): did not induce glucose uptake in dose-dependent manner; also recorded: did not activate glucose uptake
- AMPK activation activity (glucose uptake assay) ([2]; healthy donor): did not show AMPK activation activity
- AMPK isoform expression ([3]; HSKM cells): increased AMPKα2β1γ3 expression
- potency compared with reference compound MK-8722 (p-ACC, p-AMPK) ([3]; HSKM cells): more potency activity
- p-ACC and p-AMPK induction ([3]; HSKM cells, 1 hour): dosage-dependent manner
- p-AMPK, p-ACC, and p-Raptor expression ([3]; some high dosage groups, cell type not given): could induce
- systemic exposure, oral administration (in vivo; 5 mg/kg oral): low systemic exposure
- bioavailability (in vivo; male, Beagle, plasma, 5 mg/kg oral compared with intravenous infusion (1 mg/kg)): 5.27 ± 2.94%
- Liver (ng/mL), PK concentration, Average ([4]; 30 mg/kg): BLQ
- Liver (ng/mL), PK concentration, Average ([4]; 50 mg/kg): BLQ
- concentration at 4 h ([4]; adipose tissue, 30 mg/kg, read-out: Adipose tissue (ng/mL), PK concentration, Average): 19.5 ng/mL
- concentration at 4 h ([4]; adipose tissue, 50 mg/kg, read-out: Adipose tissue (ng/mL), PK concentration, Average): 11 ng/mL
- concentration at 4 h ([4]; plasma, 30 mg/kg, read-out: Plasma (ng/mL), PK concentration, Average): 244 ng/mL
- concentration at 4 h ([4]; plasma, 50 mg/kg, read-out: Plasma (ng/mL), PK concentration, Average): 197 ng/mL
- p-AMPK/p-ACC and AMPKα2β1β2γ3 activation [5]: dosage-dependent manner
- toxicity compared to reference compounds MK-8722 and PF-06409577 (G6PD release) (HSKM cells): less toxicity
- toxicity compared to reference compounds MK-8722 and PF-06409577 (G6PD release) (HepG2 cells): less toxicity
